# Measurements: patent US20240041042A1, “1-(PYRIDYL)-5-AZINYLPYRAZOLE DERIVATIVES, AND THEIR USE FOR CONTROL OF UNDESIRED PLANT GROWTH” (Bayer Aktiengesellschaft, priority 2020, published 2024)
# Key:
# Type in all cases: in vivo
# [1] = test system: Digitaria sanguinalis (DIGSA); assay: Post-emergence herbicidal action against DIGSA; conditions: visual rating about 3 weeks after treatment
# Outline: (§1)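 Rates were 320 g/ha or below, applied as aqueous WP/EC spray with 0.5% additive (600 l/ha) onto one-leaf-stage plants. About 3 weeks later in the greenhouse, damage was scored visually against untreated plants on a 0–100% scale, where 100% means plants died.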
# [2] = test system: Alopecurus myosuroides (ALOMY); assay: Post-emergence herbicidal action against ALOMY; conditions: visual rating about 3 weeks after treatment vs untreated controls (100% = plants have died, 0% = like control plants)
# Outline: as §1
# [3] = test system: Verconica persica (VERPE); assay: Post-emergence herbicidal action against VERPE
# Outline: as §1
# [4] = test system: Pharbitis purpurea (PHBPU); assay: Pre-emergence herbicidal action against PHBPU
# Outline: (§2)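 Greenhouse pot trial: seeds sown, soil-covered, sprayed before emergence with compound in water (0.5% additive; 600 l/ha; ≤320 g/ha). Scoring visual, ~3 weeks, 0–100% scale vs untreated.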
# [5] = test system: Verconica persica (VERPE); assay: Pre-emergence herbicidal action against VERPE
# Outline: as §2
# [6] = test system: Polygonum convolvulus (POLCO); assay: Pre-emergence herbicidal action against POLCO
# Outline: as §2
# [7] = test system: Lolium rigidum (LOLRI); assay: Post-emergence herbicidal action against LOLRI; conditions: dosage 320 g/ha
# Outline: as §1
# [8] = test system: Digitaria sanguinalis (DIGSA); assay: Pre-emergence herbicidal action against DIGSA
# Outline: as §2
# [9] = test system: Abutilon theophrasti (ABUTH); assay: Post-emergence herbicidal action against ABUTH; conditions: visual rating about 3 weeks after treatment vs untreated controls (100% = plants have died, 0% = like control plants)
# Outline: as §1
# [10] = test system: Echinochloa crus-galli (ECHCG); assay: Pre-emergence herbicidal action against ECHCG
# Outline: as §2
# [11] = test system: Setaria viridis (SETVI); assay: Pre-emergence herbicidal action against SETVI
# Outline: as §2
# [12] = test system: Amaranthus retroflexus (AMARE); assay: Post-emergence herbicidal action against AMARE; conditions: 320 g/ha, visual rating about 3 weeks after treatment
# Outline: as §1
# [13] = test system: Oryza sativa (ORYSA); conditions: crop plant compatibility, 80 g/ha, effect in comparison to untreated controls
# Outline: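 Foliar application at the one-leaf stage: WP/EC formulation, 0.5% additive, 600 l/ha water. Greenhouse-grown in sandy loam. Endpoint is visual % injury relative to untreated controls at about 3 weeks.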
# [14] = test system: Viola tricolor (VIOTR); assay: Post-emergence herbicidal action against VIOTR
# Outline: as §1
# [15] = test system: Pharbitis purpurea (PHBPU); assay: Post-emergence herbicidal action against PHBPU
# Outline: as §1
# [16] = test system: Polygonum convolvulus (POLCO); assay: Post-emergence herbicidal action against POLCO
# Outline: as §1
# [17] = test system: Amaranthus retroflexus (AMARE); assay: Pre-emergence herbicidal action against AMARE; conditions: visual scoring after about 3 weeks vs untreated controls
# Outline: as §2
# [18] = test system: Matricaria inodora (MATIN); assay: Pre-emergence herbicidal action against MATIN
# Outline: as §2
# [19] = test system: Lolium rigidum (LOLRI); assay: Pre-emergence herbicidal action against LOLRI
# Outline: as §2
# [20] = test system: Matricaria inodora (MATIN); assay: Post-emergence herbicidal action against MATIN
# Outline: as §1
# [21] = test system: Setaria viridis (SETVI); assay: Post-emergence herbicidal action against SETVI
# Outline: as §1
# [22] = test system: Echinochloa crus-galli (ECHCG); assay: Post-emergence herbicidal action against ECHCG
# Outline: as §1
# [23] = test system: Avena fatua (AVEFA); assay: Pre-emergence herbicidal action against AVEFA; conditions: visual scoring after about 3 weeks vs untreated controls
# Outline: as §2
# [24] = test system: Viola tricolor (VIOTR); assay: Pre-emergence herbicidal action against VIOTR
# Outline: as §2
# [25] = test system: Abutilon theophrasti (ABUTH); assay: Pre-emergence herbicidal action against ABUTH; conditions: 100% = plants have died
# Outline: as §2
# [26] = test system: Alopecurus myosuroides (ALOMY); assay: Pre-emergence herbicidal action against ALOMY; conditions: scored visually after about 3 weeks, 100% = plants have died
# Outline: as §2
# [27] = test system: Avena fatua (AVEFA); assay: Post-emergence herbicidal action against AVEFA; conditions: visual rating about 3 weeks after treatment
# Outline: as §1
# [28] = 80 g/ha, visual scoring after about 3 weeks vs untreated controls
# [29] = Dosage column 320 g/ha (title prints 3200 g/ha), scored visually after about 3 weeks
smiles,measurement,setting,value
CCOC(=O)[C@@H](C)Oc1nn(-c2nc(F)ccc2F)c(-c2cncc(F)c2)c1Cl [Example I-208],Post-emergence action against DIGSA in %,[1]; 80 g/ha,80%
same,Post-emergence action against DIGSA in %,[1]; 320 g/ha,90%
same,Post-emergence action against ALOMY in %,[2]; 320 g/ha,80%
same,Post-emergence action against VERPE in %,"[3]; 320 g/ha, VERPE",80%
same,Post-emergence action against VERPE in %,[3]; dosage 80 g/ha,80%
same,Pre-emergence action against PHBPU in %,[4]; dosage 80 g/ha,90%
same,Pre-emergence action against PHBPU in %,[4]; dosage 320 g/ha,90%
same,Pre-emergence action against VERPE in %,[5]; dosage 80 g/ha,90%
same,Pre-emergence action against VERPE in %,[5]; dosage 320 g/ha,100%
same,Pre-emergence action against POLCO in %,[6]; dosage 80 g/ha,90%
same,Pre-emergence action against POLCO in %,[6]; dosage 320 g/ha,90%
same,Post-emergence action against LOLRI in %,[7],80%
same,Pre-emergence action against DIGSA in %,[8]; [28],90%
same,Pre-emergence action against DIGSA in %,[8]; dosage 320 g/ha,100%
same,Post-emergence action against ABUTH in %,[9]; 80 g/ha,80%
same,Post-emergence action against ABUTH in %,[9]; 320 g/ha,90%
same,Pre-emergence action against ECHCG in %,[10]; dosage 80 g/ha,90%
same,Pre-emergence action against ECHCG in %,[10]; dosage 320 g/ha,100%
same,Pre-emergence action against SETVI in %,[11]; dosage 80 g/ha,90%
same,Pre-emergence action against SETVI in %,[11]; dosage 320 g/ha,100%
same,Post-emergence action against AMARE in %,[12],80%
same,Post-emergence action against ORYSA in %,[13],0%
same,Post-emergence action against VIOTR in %,[14]; 80 g/ha,80%
same,Post-emergence action against VIOTR in %,[14]; 320 g/ha,80%
same,Post-emergence action against PHBPU in %,[15]; dosage 80 g/ha,80%
same,Post-emergence action against PHBPU in %,[15]; dosage 320 g/ha,90%
same,Post-emergence action against POLCO in %,[16]; dosage 320 g/ha,80%
same,Pre-emergence action against AMARE in %,[17]; 80 g/ha,90%
same,Pre-emergence action against AMARE in %,[17]; 320 g/ha,100%
same,Pre-emergence action against MATIN in %,[18]; dosage 80 g/ha,90%
same,Pre-emergence action against MATIN in %,[18]; dosage 320 g/ha,90%
same,Pre-emergence action against LOLRI in %,[19]; dosage 80 g/ha,90%
same,Pre-emergence action against LOLRI in %,[19]; dosage 320 g/ha,100%
same,Post-emergence action against MATIN in %,[20]; dosage 80 g/ha,80%
same,Post-emergence action against MATIN in %,[20]; dosage 320 g/ha,80%
same,Post-emergence action against SETVI in %,[21]; dosage 80 g/ha,80%
same,Post-emergence action against SETVI in %,[21]; dosage 320 g/ha,80%
same,Post-emergence action against ECHCG in %,[22]; dosage 80 g/ha,80%
same,Post-emergence action against ECHCG in %,[22]; dosage 320 g/ha,90%
same,Pre-emergence action against AVEFA in %,[23]; 80 g/ha,80%
same,Pre-emergence action against AVEFA in %,[23]; 320 g/ha,90%
same,Pre-emergence action against VIOTR in %,"[24]; 320 g/ha, Viola tricolor",100%
same,Pre-emergence action against VIOTR in %,[24]; dosage 80 g/ha,100%
same,Pre-emergence action against ABUTH,"[25]; 80 g/ha, scored visually after about 3 weeks vs untreated controls, 0% = like control plants",80%
same,Pre-emergence action against ABUTH,[25]; [29],90%
same,Pre-emergence action against ALOMY,[26]; 80 g/ha,90%
same,Pre-emergence action against ALOMY,[26]; 320 g/ha,100%
COCCOC(=O)COc1nn(-c2ncccc2C)c(-c2cncc(F)c2)c1Br [Example I-212],Post-emergence action against DIGSA in %,[1]; 80 g/ha,90%
same,Post-emergence action against DIGSA in %,[1]; 320 g/ha,90%
same,Post-emergence action against ALOMY in %,[2]; 80 g/ha,90%
same,Post-emergence action against ALOMY in %,[2]; 320 g/ha,90%
same,Post-emergence action against VERPE in %,"[3]; 320 g/ha, VERPE",80%
same,Post-emergence action against VERPE in %,[3]; dosage 80 g/ha,80%
same,Pre-emergence action against PHBPU in %,[4]; dosage 80 g/ha,90%
same,Pre-emergence action against PHBPU in %,[4]; dosage 320 g/ha,90%
same,Pre-emergence action against VERPE in %,[5]; dosage 80 g/ha,80%
same,Pre-emergence action against VERPE in %,[5]; dosage 320 g/ha,100%
same,Pre-emergence action against POLCO in %,[6]; dosage 80 g/ha,90%
same,Pre-emergence action against POLCO in %,[6]; dosage 320 g/ha,90%
same,Post-emergence action against LOLRI in %,[7],80%
same,Pre-emergence action against DIGSA in %,[8]; [28],100%
same,Pre-emergence action against DIGSA in %,[8]; dosage 320 g/ha,100%
same,Post-emergence action against ABUTH in %,[9]; 80 g/ha,80%
same,Post-emergence action against ABUTH in %,[9]; 320 g/ha,80%
same,Pre-emergence action against ECHCG in %,[10]; dosage 80 g/ha,100%
same,Pre-emergence action against ECHCG in %,[10]; dosage 320 g/ha,100%
same,Pre-emergence action against SETVI in %,[11]; dosage 80 g/ha,100%
same,Pre-emergence action against SETVI in %,[11]; dosage 320 g/ha,100%
same,Post-emergence action against AVEFA in %,[27]; 80 g/ha,80%
same,Post-emergence action against AVEFA in %,[27]; 320 g/ha,90%
same,Post-emergence action against AMARE in %,[12],80%
same,Post-emergence action against ORYSA in %,[13],10%
same,Post-emergence action against VIOTR in %,[14]; 80 g/ha,80%
same,Post-emergence action against VIOTR in %,[14]; 320 g/ha,80%
same,Post-emergence action against PHBPU in %,[15]; dosage 80 g/ha,90%
same,Post-emergence action against PHBPU in %,[15]; dosage 320 g/ha,100%
same,Post-emergence action against POLCO in %,[16]; dosage 80 g/ha,80%
same,Post-emergence action against POLCO in %,[16]; dosage 320 g/ha,90%
same,Pre-emergence action against AMARE in %,[17]; 80 g/ha,90%
same,Pre-emergence action against AMARE in %,[17]; 320 g/ha,100%
same,Pre-emergence action against MATIN in %,[18]; dosage 80 g/ha,80%
same,Pre-emergence action against MATIN in %,[18]; dosage 320 g/ha,90%
same,Pre-emergence action against LOLRI in %,[19]; dosage 80 g/ha,80%
same,Pre-emergence action against LOLRI in %,[19]; dosage 320 g/ha,90%
same,Post-emergence action against MATIN in %,[20]; dosage 320 g/ha,80%
same,Post-emergence action against SETVI in %,[21]; dosage 80 g/ha,80%
same,Post-emergence action against SETVI in %,[21]; dosage 320 g/ha,80%
same,Post-emergence action against ECHCG in %,[22]; dosage 80 g/ha,90%
same,Post-emergence action against ECHCG in %,[22]; dosage 320 g/ha,90%
same,Pre-emergence action against AVEFA in %,[23]; 80 g/ha,80%
same,Pre-emergence action against AVEFA in %,[23]; 320 g/ha,90%
same,Pre-emergence action against VIOTR in %,"[24]; 320 g/ha, Viola tricolor",100%
same,Pre-emergence action against VIOTR in %,[24]; dosage 80 g/ha,100%
same,Pre-emergence action against ABUTH,[25]; [29],80%
same,Pre-emergence action against ALOMY,[26]; 80 g/ha,100%
same,Pre-emergence action against ALOMY,[26]; 320 g/ha,100%
